Experimental data taken from ChEMBL document CHEMBL3046607, “Synthesis and Herbicidal Activity of New 1-Alkyl-3-aryloxypyrazole-4-carboxamide Derivatives” (J Pestic Sci, 2004).
The source made the active and inactive calls. No cut-off for these calls is given here.

Experiments:
Lindernia procumbens [1] = test: Pre-emergence herbicidal activity against Lindernia procumbens assessed as bleaching of stem/leaf parts; assay type: functional, organism-based
Elatine triandra [2] = test: Pre-emergence herbicidal activity against Elatine triandra assessed as bleaching of stem/leaf parts; assay type: functional, organism-based
Echinochloa oryzicola [3] = test: Pre-emergence herbicidal activity against Echinochloa oryzicola at 33 g a.i/ha measured after 14 days; assay type: functional, organism-based
Elatine triandra [4] = test: Post-emergence herbicidal activity against Elatine triandra assessed as bleaching of stem/leaf parts; assay type: functional, organism-based; note: test concentration or dose not given here
Oryza sativa = test: Phytotoxicity against Oryza sativa cv. Koshihikari (rice) at 33 g a.i/ha measured after 14 days; assay type: organism-based; conditions: in vivo, 336 h
Rotala indica [5] = test: Pre-emergence herbicidal activity against Rotala indica at 33 g a.i/ha measured after 14 days; assay type: functional, organism-based
Cyperus difformis [6] = test: Pre-emergence herbicidal activity against Cyperus difformis assessed as bleaching of stem/leaf parts; assay type: functional, organism-based
Ammannia multiflora [7] = test: Pre-emergence herbicidal activity against Ammannia multiflora at 33 g a.i/ha measured after 14 days; assay type: functional, organism-based
Rotala indica [8] = test: Post-emergence herbicidal activity against Rotala indica assessed as bleaching of stem/leaf parts; assay type: functional, organism-based
[9] = tested on: Schoenoplectiella juncoides; test: Pre-emergence herbicidal activity against Schoenoplectiella juncoides assessed as bleaching of stem/leaf parts; assay type: functional, organism-based
Pontederia vaginalis [10] = test: Post-emergence herbicidal activity against Monochoria vaginalis assessed as bleaching of stem/leaf parts; assay type: functional, organism-based
Pontederia vaginalis [11] = test: Pre-emergence herbicidal activity against Monochoria vaginalis at 33 g a.i/ha measured after 14 days; assay type: functional, organism-based
Elatine triandra [12] = test: Pre-emergence herbicidal activity against Elatine triandra at 33 g a.i/ha measured after 14 days; assay type: functional, organism-based
Lindernia procumbens [13] = test: Pre-emergence herbicidal activity against Lindernia procumbens at 33 g a.i/ha measured after 14 days; assay type: functional, organism-based
Echinochloa oryzicola [14] = test: Post-emergence herbicidal activity against Echinochloa oryzicola assessed as bleaching of stem/leaf parts; assay type: functional, organism-based
Ammannia multiflora [15] = test: Pre-emergence herbicidal activity against Ammannia multiflora assessed as bleaching of stem/leaf parts; assay type: functional, organism-based
Cyperus difformis [16] = test: Pre-emergence herbicidal activity against Cyperus difformis at 33 g a.i/ha measured after 14 days; assay type: functional, organism-based
Ammannia multiflora [17] = test: Post-emergence herbicidal activity against Ammannia multiflora assessed as bleaching of stem/leaf parts; assay type: functional, organism-based
[18] = tested on: Schoenoplectiella juncoides; test: Pre-emergence herbicidal activity against Schoenoplectiella juncoides at 33 g a.i/ha measured after 14 days; assay type: functional, organism-based
Rotala indica [19] = test: Pre-emergence herbicidal activity against Rotala indica assessed as bleaching of stem/leaf parts; assay type: functional, organism-based
Echinochloa oryzicola [20] = test: Pre-emergence herbicidal activity against Echinochloa oryzicola assessed as bleaching of stem/leaf parts; assay type: functional, organism-based
Pontederia vaginalis [21] = test: Pre-emergence herbicidal activity against Monochoria vaginalis assessed as bleaching of stem/leaf parts; assay type: functional, organism-based
[22] = tested on: Schoenoplectiella juncoides; test: Post-emergence herbicidal activity against Schoenoplectiella juncoides assessed as bleaching of stem/leaf parts; assay type: functional, organism-based; note: test concentration or dose not given here
Lindernia procumbens [23] = test: Post-emergence herbicidal activity against Lindernia procumbens assessed as bleaching of stem/leaf parts; assay type: functional, organism-based; note: test concentration or dose not given here
Cyperus difformis [24] = test: Post-emergence herbicidal activity against Cyperus difformis assessed as bleaching of stem/leaf parts; assay type: functional, organism-based; note: test concentration or dose not given here

Cn1cc(C(=O)Nc2ccccc2Cl)c(Oc2cccc(C(F)(F)F)c2)n1 was tested, and the Activity (Lindernia procumbens [1]) was “Active”, the Activity (Elatine triandra [2]) was “Active” and the Activity (Echinochloa oryzicola [3]) was “Active”. For the same compound, the Activity (Elatine triandra [4]) was “Active”, the Activity (Oryza sativa) was “Non-toxic” and the Activity (Rotala indica [5]) was “Active”. For the same compound, the Activity (Cyperus difformis [6]) was “Active”, the Activity (Ammannia multiflora [7]) was “Active” and the Activity (Rotala indica [8]) was “Active”. The Activity [9] was “Active”, the Activity (Pontederia vaginalis [10]) was “Active” and the Activity (Pontederia vaginalis [11]) was “Active”. For the same compound, the Activity (Elatine triandra [12]) was “Active”, the Activity (Lindernia procumbens [13]) was “Active” and the Activity (Echinochloa oryzicola [14]) was “Active”. For the same compound, the Activity (Ammannia multiflora [15]) was “Active”, the Activity (Cyperus difformis [16]) was “Active” and the Activity (Ammannia multiflora [17]) was “Active”. For the same compound, the Activity [18] was “Active”, the Activity (Rotala indica [19]) was “Active” and the Activity (Echinochloa oryzicola [20]) was “Active”. For the same compound, the Activity (Pontederia vaginalis [21]) was “Active”, the Activity [22] was “Active” and the Activity (Lindernia procumbens [23]) was “Active”. For the same compound, the Activity (Cyperus difformis [24]) was “Active”.
Cn1cc(C(=O)Nc2ccc(F)cc2)c(Oc2cccc(C(F)(F)F)c2)n1 was tested, and the Activity (Lindernia procumbens [1]) was “Active”, the Activity (Elatine triandra [2]) was “Active” and the Activity (Echinochloa oryzicola [3]) was “Active”. For the same compound, the Activity (Elatine triandra [4]) was “Active”, the Activity (Oryza sativa) was “Non-toxic” and the Activity (Rotala indica [5]) was “Active”. The Activity (Cyperus difformis [6]) was “Active”, the Activity (Ammannia multiflora [7]) was “Active” and the Activity (Rotala indica [8]) was “Active”. For the same compound, the Activity [9] was “Active”, the Activity (Pontederia vaginalis [10]) was “Active” and the Activity (Pontederia vaginalis [11]) was “Active”. The Activity (Elatine triandra [12]) was “Active”, the Activity (Lindernia procumbens [13]) was “Active” and the Activity (Echinochloa oryzicola [14]) was “Active”. For the same compound, the Activity (Ammannia multiflora [15]) was “Active”, the Activity (Cyperus difformis [16]) was “Active” and the Activity (Ammannia multiflora [17]) was “Active”. For the same compound, the Activity [18] was “inactive”, the Activity (Rotala indica [19]) was “Active” and the Activity (Echinochloa oryzicola [20]) was “Active”. For the same compound, the Activity (Pontederia vaginalis [21]) was “Active”, the Activity [22] was “Active” and the Activity (Lindernia procumbens [23]) was “Active”. For the same compound, the Activity (Cyperus difformis [24]) was “Active”.
O=C(Nc1ccc(F)cc1F)c1cn(CCF)nc1Oc1cccc(C(F)(F)F)c1 was tested, and the Activity (Lindernia procumbens [1]) was “Active”, the Activity (Elatine triandra [2]) was “Active” and the Activity (Echinochloa oryzicola [3]) was “inactive”. The Activity (Elatine triandra [4]) was “Active”, the Activity (Oryza sativa) was “Non-toxic” and the Activity (Rotala indica [5]) was “inactive”. The Activity (Cyperus difformis [6]) was “Active”, the Activity (Ammannia multiflora [7]) was “inactive” and the Activity (Rotala indica [8]) was “Active”. The Activity [9] was “Active”, the Activity (Pontederia vaginalis [10]) was “Active” and the Activity (Pontederia vaginalis [11]) was “inactive”. The Activity (Elatine triandra [12]) was “inactive”, the Activity (Lindernia procumbens [13]) was “inactive” and the Activity (Echinochloa oryzicola [14]) was “Active”. For the same compound, the Activity (Ammannia multiflora [15]) was “Active”, the Activity (Cyperus difformis [16]) was “inactive” and the Activity (Ammannia multiflora [17]) was “Active”. For the same compound, the Activity [18] was “inactive”, the Activity (Rotala indica [19]) was “Active” and the Activity (Echinochloa oryzicola [20]) was “Active”. For the same compound, the Activity (Pontederia vaginalis [21]) was “Active”, the Activity [22] was “Active” and the Activity (Lindernia procumbens [23]) was “Active”. The Activity (Cyperus difformis [24]) was “Active”.
With Cn1cc(C(=O)Nc2ccc(F)cc2F)c(Oc2ccc(Br)c(C(F)(F)F)c2)n1 the Activity (Lindernia procumbens [1]) was “Active”, the Activity (Elatine triandra [2]) was “Active” and the Activity (Echinochloa oryzicola [3]) was “inactive”. For the same compound, the Activity (Elatine triandra [4]) was “Active”, the Activity (Oryza sativa) was “Non-toxic” and the Activity (Rotala indica [5]) was “Active”. For the same compound, the Activity (Cyperus difformis [6]) was “Active”, the Activity (Ammannia multiflora [7]) was “Active” and the Activity (Rotala indica [8]) was “Active”. For the same compound, the Activity [9] was “Active”, the Activity (Pontederia vaginalis [10]) was “Active” and the Activity (Pontederia vaginalis [11]) was “Active”. For the same compound, the Activity (Elatine triandra [12]) was “Active”, the Activity (Lindernia procumbens [13]) was “Active” and the Activity (Echinochloa oryzicola [14]) was “Active”. For the same compound, the Activity (Ammannia multiflora [15]) was “Active”, the Activity (Cyperus difformis [16]) was “Active” and the Activity (Ammannia multiflora [17]) was “Active”. The Activity [18] was “inactive”, the Activity (Rotala indica [19]) was “Active” and the Activity (Echinochloa oryzicola [20]) was “Active”. For the same compound, the Activity (Pontederia vaginalis [21]) was “Active”, the Activity [22] was “Active” and the Activity (Lindernia procumbens [23]) was “Active”. The Activity (Cyperus difformis [24]) was “Active”.
In the case of CCCn1cc(C(=O)Nc2ccc(F)cc2F)c(Oc2cccc(C(F)(F)F)c2)n1, the Activity (Lindernia procumbens [1]) is reported as “Active”, the Activity (Elatine triandra [2]) is reported as “Active” and the Activity (Echinochloa oryzicola [3]) is reported as “inactive”. For the same compound, the Activity (Elatine triandra [4]) was “Active”, the Activity (Oryza sativa) was “Non-toxic” and the Activity (Rotala indica [5]) was “inactive”. The Activity (Cyperus difformis [6]) was “Active”, the Activity (Ammannia multiflora [7]) was “inactive” and the Activity (Rotala indica [8]) was “Active”. For the same compound, the Activity [9] was “Active”, the Activity (Pontederia vaginalis [10]) was “Active” and the Activity (Pontederia vaginalis [11]) was “inactive”. For the same compound, the Activity (Elatine triandra [12]) was “inactive”, the Activity (Lindernia procumbens [13]) was “inactive” and the Activity (Echinochloa oryzicola [14]) was “Active”. The Activity (Ammannia multiflora [15]) was “Active”, the Activity (Cyperus difformis [16]) was “inactive” and the Activity (Ammannia multiflora [17]) was “Active”. The Activity [18] was “inactive”, the Activity (Rotala indica [19]) was “Active” and the Activity (Echinochloa oryzicola [20]) was “Active”. The Activity (Pontederia vaginalis [21]) was “Active”, the Activity [22] was “Active” and the Activity (Lindernia procumbens [23]) was “Active”. For the same compound, the Activity (Cyperus difformis [24]) was “Active”.
Cn1cc(C(=O)Nc2ccc(F)cc2Cl)c(Oc2cccc(C(F)(F)F)c2)n1 was tested, and the Activity (Lindernia procumbens [1]) was “Active”, the Activity (Elatine triandra [2]) was “Active” and the Activity (Echinochloa oryzicola [3]) was “Active”. The Activity (Elatine triandra [4]) was “Active”, the Activity (Oryza sativa) was “Non-toxic” and the Activity (Rotala indica [5]) was “Active”. The Activity (Cyperus difformis [6]) was “Active”, the Activity (Ammannia multiflora [7]) was “Active” and the Activity (Rotala indica [8]) was “Active”. For the same compound, the Activity [9] was “Active”, the Activity (Pontederia vaginalis [10]) was “Active” and the Activity (Pontederia vaginalis [11]) was “Active”. For the same compound, the Activity (Elatine triandra [12]) was “Active”, the Activity (Lindernia procumbens [13]) was “Active” and the Activity (Echinochloa oryzicola [14]) was “Active”. The Activity (Ammannia multiflora [15]) was “Active”, the Activity (Cyperus difformis [16]) was “Active” and the Activity (Ammannia multiflora [17]) was “Active”. For the same compound, the Activity [18] was “Active”, the Activity (Rotala indica [19]) was “Active” and the Activity (Echinochloa oryzicola [20]) was “Active”. The Activity (Pontederia vaginalis [21]) was “Active”, the Activity [22] was “Active” and the Activity (Lindernia procumbens [23]) was “Active”. For the same compound, the Activity (Cyperus difformis [24]) was “Active”.
In the case of Cn1cc(C(=O)Nc2ccc(F)c(F)c2F)c(Oc2cccc(C(F)(F)F)c2)n1, the Activity (Lindernia procumbens [1]) is reported as “Active”, the Activity (Elatine triandra [2]) is reported as “Active” and the Activity (Echinochloa oryzicola [3]) is reported as “Active”. The Activity (Elatine triandra [4]) was “Active”, the Activity (Oryza sativa) was “Non-toxic” and the Activity (Rotala indica [5]) was “Active”. For the same compound, the Activity (Cyperus difformis [6]) was “Active”, the Activity (Ammannia multiflora [7]) was “Active” and the Activity (Rotala indica [8]) was “Active”. For the same compound, the Activity [9] was “Active”, the Activity (Pontederia vaginalis [10]) was “Active” and the Activity (Pontederia vaginalis [11]) was “Active”. The Activity (Elatine triandra [12]) was “Active”, the Activity (Lindernia procumbens [13]) was “Active” and the Activity (Echinochloa oryzicola [14]) was “Active”. The Activity (Ammannia multiflora [15]) was “Active”, the Activity (Ammannia multiflora [17]) was “Active” and the Activity [18] was “Active”. The Activity (Rotala indica [19]) was “Active”, the Activity (Echinochloa oryzicola [20]) was “Active” and the Activity (Pontederia vaginalis [21]) was “Active”. For the same compound, the Activity [22] was “Active”, the Activity (Lindernia procumbens [23]) was “Active” and the Activity (Cyperus difformis [24]) was “Active”.
